{
  "source": "paper PMC9923724",
  "about": "“Half sandwich-type osmium, ruthenium, iridium and rhodium complexes with bidentate glycosyl heterocyclic ligands induce cytostasis in platinum-resistant ovarian cancer cells and bacteriostasis in Gram-positive multiresistant bacteria” (Frontiers in Chemistry, 2023)",
  "key": {"[1]": {"tested_on": "4-hydroxynonenal (4HNE)-modified proteins in A2780 cells", "assay": "Western blot for 4HNE-modified proteins in A2780 cells", "format": "cell-based", "conditions": "IC50 concentrations, 15 or 30 min, bands ∼70 kDa and ∼60 kDa", "experimental": "FIGURE 9 (A) Vitamin E, a lipid soluble antioxidant blocks the cytostatic activity of the bioactive complexes. 1.5 × 10^3 A2780 cells were plated to 96 well plates. Cells were treated with the compounds in the concentrations indicated for 48 h followed by an SRB assay. Data is represented as average ± SD, from four biological replicates; individual assays were performed in duplicates. Values were normalized for vehicle treated cells, absorbance for vehicle treated cells equals to 1. Normality was checked using the D’Agostino-Pearson normality test. […] Statistical significance was assessed using two-way ANOVA test comparing all measurement points. * and *** represent statistical significance at p <0.05 and 0.001, respectively, between the lowest concentration and the higher concentrations among non-vitamin E-treated cells. ! and !!! represent statistical significance at p <0.05 and 0.001, respectively, between the lowest concentration and the higher concentrations among vitamin E-treated cells. #, ## and ### represent statistical significance at p <0.05, p <0.01 and 0.001, respectively, between the non-vitamin E-treated vs. vitamin E-treated cells. […] Cells were harvested and lysed. Cellular proteins were separated on a 10% SDS-PAGE gel and were blotted. […]\nTo complement the vitamin E experiments we assessed oxidative stress by detecting the formation of 4-hydroxynonenal (4HNE)-modified proteins, a hallmark of oxidative stress ([Ayala et al., 2014]; [Zhang and Forman, 2017]). […]\n(§1) SDS-polyacrylamide gel electrophoresis and Western blot was performed as in ([Márton et al., 2018]) using an antibody against 4HNE (Abcam (ab46545) 1:1000) that was detected using a corresponding peroxidase-conjugated secondary antibody (1:10000, Cell Signaling Technology, Inc., Beverly, MA, United States). […] ECL and amido black pictures were captured using the ChemiDoc Touch Imaging System (Bio-Rad Laboratories, Inc., Hercules, California, United States) and the pictures were evaluated using the Image Lab software (Bio-Rad)."}, "[2]": {"tested_on": "Enterococcus faecalis (ATCC29212)", "assay": "Broth microdilution MIC, Enterococcus faecalis reference strain", "format": "cell-based", "conditions": "Enterococcus faecalis ATCC29212, 24 h", "experimental": "(§2) The MIC values of the complexes were determined against the reference strains of S. aureus (ATCC29213) and E. faecalis. (ATCC29212) and against clinical VRE and MRSA isolates by microdilution assays (repeated at least twice in duplicates) as described in Materials and Methods. The numbers indicate how many isolates were susceptible to the compound out of those tested; i.e., 1/6 stands for 1 isolate was susceptible out of 6 tested. […] Cells were harvested and lysed. Cellular proteins was separated on a 10% SDS-PAGE gel and were blotted. Blots were probed with 4HNE antibody (top blot), the lower blot was stained with amido black. Arrows point at band of interest. Experiments were repeated three times and a representative blot is shown. On the blots brightness and contrast were adjusted. […] Each was matched to a substance and strain by its position over the x-axis categories. / Ir-7: ND and 0/3 (left plot) and ND and 0/6 (right plot) were matched to E. faecalis/VRE and S. aureus/MRSA by position only.\n(§3) We used the reference strains of Staphylococcus aureus (ATCC29213), and Enterococcus faecalis (ATCC29212) that were purchased from ATCC (Manassas, VA, United States).\n(§4) Microdilution experiments were performed according to the standards of EUCAST ([EUCAST, 2021]). […] The inoculated plates were incubated for 24 h at 37°C then were assessed visually. […] All experiments were performed at least twice in duplicates."}, "[3]": {"tested_on": "Staphylococcus aureus (ATCC29213)", "assay": "Broth microdilution MIC, Staphylococcus aureus reference strain", "format": "cell-based", "conditions": "Staphylococcus aureus ATCC29213, 24 h", "experimental": "as §2, §3, §4"}, "[4]": {"assay": "Determination of the distribution coefficients (logD)", "format": "physicochemical", "conditions": "distribution coefficient"}, "[5]": {"tested_on": "4HNE expression in Enterococcus faecalis reference strain", "assay": "Western blot for 4HNE in Enterococcus faecalis reference strain", "format": "cell-based", "conditions": "at MIC (Ru-7 5 μM, Os-7 10 µM), 15 min, 30 min, 1 h; band ∼120 kDa", "experimental": "(§5) The MIC values of the complexes were determined against the reference strains of S. aureus (ATCC29213) and E. faecalis. (ATCC29212) and against clinical VRE and MRSA isolates by microdilution assays (repeated at least twice in duplicates) as described in Materials and Methods. The numbers indicate how many isolates were susceptible to the compound out of those tested; i.e., 1/6 stands for 1 isolate was susceptible out of 6 tested. […] Cells were harvested and lysed. Cellular proteins was separated on a 10% SDS-PAGE gel and were blotted. Blots were probed with 4HNE antibody (top blot), the lower blot was stained with amido black. Arrows point at band of interest. Experiments were repeated three times and a representative blot is shown. On the blots brightness and contrast were adjusted. […]\nas §1"}, "[6]": {"tested_on": "4HNE formation in Staphylococcus aureus reference strain", "assay": "Western blot for 4HNE in Staphylococcus aureus reference strain", "format": "cell-based", "conditions": "at MIC (Ru-7 10 μM, Os-7 20 µM), 15 min, 30 min, 1 h; band ∼50 kDa", "experimental": "as §5, §1"}},
  "data": [
    {"molecule": "Cc1c(C)c(C)[c-](C)c1C.F[P-](F)(F)(F)(F)F.O=C(OCC1OC(n2cc(-c3ccc4ccccc4n3)nn2)C(OC(=O)c2ccccc2)C(OC(=O)c2ccccc2)C1OC(=O)c1ccccc1)c1ccccc1.[Cl][Ir+2]", "note": "(mixture of isomers) [Ir-7]", "values": [
      {"measurement": "4HNE formation (4HNE-modified proteins)", "setting": "[1]", "result": "gross induction of 4HNE formation"}
    ]},
    {"molecule": "Cc1ccc(C(C)C)cc1.F[P-](F)(F)(F)(F)F.O=C(OCC1OC(n2cc(-c3ccc4ccccc4n3)nn2)C(OC(=O)c2ccccc2)C(OC(=O)c2ccccc2)C1OC(=O)c1ccccc1)c1ccccc1.[Cl][Os+]", "note": "(mixture of isomers) [Os-7]", "values": [
      {"measurement": "MIC, Reference E. faecalis", "setting": "[2]", "result": 10, "unit": "µM"},
      {"measurement": "MIC, Reference S. aureus", "setting": "[3]", "result": 20, "unit": "µM"},
      {"measurement": "LogD", "setting": "[4]", "result": 2.33},
      {"measurement": "4HNE expression in Enterococcus faecalis reference strain", "setting": "[5]", "result": "induced 4HNE expression"},
      {"measurement": "4HNE formation in Staphylococcus aureus reference strain", "setting": "[6]", "result": "induced 4HNE formation"},
      {"measurement": "4HNE formation (4HNE-modified proteins)", "setting": "[1]", "result": "gross induction of 4HNE formation"}
    ]},
    {"molecule": "Cc1ccc(C(C)C)cc1.F[P-](F)(F)(F)(F)F.O=C(OCC1OC(n2cc(-c3ccc4ccccc4n3)nn2)C(OC(=O)c2ccccc2)C(OC(=O)c2ccccc2)C1OC(=O)c1ccccc1)c1ccccc1.[Cl][Ru+]", "note": "(mixture of isomers) [Ru-7]", "values": [
      {"measurement": "MIC, Reference E. faecalis", "setting": "[2]", "result": 5, "unit": "µM"},
      {"measurement": "MIC, Reference S. aureus", "setting": "[3]", "result": 10, "unit": "µM"},
      {"measurement": "4HNE expression in Enterococcus faecalis reference strain", "setting": "[5]", "result": "induced 4HNE expression"},
      {"measurement": "4HNE formation in Staphylococcus aureus reference strain", "setting": "[6]", "result": "induced 4HNE formation"},
      {"measurement": "4HNE formation (4HNE-modified proteins)", "setting": "[1]", "result": "gross induction of 4HNE formation"}
    ]}
  ]
}
